Source: patent US20210284638A1 (Saint Louis University, priority 2018, published 2021)
Where a name gives a salt, the structure may show the parent alone.

Legend:
[1] = target: T1, Recombinant human integrin αVβ3 (Homo sapiens, UniProt P05106+P06756); assay: Solid Phase Receptor Assay for αVβ3 function; format: binding; conditions: plate-bound human vitronectin; read-out: αVβ3 SPRA IC50
T1 construct: purchased R&D Systems 3050-AV
Procedure: C. […] Wells were washed 3 times with 150 μL TBS+ and then 150 μL of blocking buffer (TBS+ with 1% bovine serum albumin, Sigma A7906) was added. The plate was incubated for 1 hr at 37° C. and then washed 3× with TBS+ buffer. […] Compounds were diluted to 20 μM and then 1 μL was added to each well of the plate according to a standard template with each sample repeated in triplicate. After incubation for two hours at room temperature, the plate was washed 3× with 150 μL of TBS+ buffer. To each well, 50 μL of biotinylated anti-αV antibody (R&D Systems, BAF1219) at 0.5 μg/mL in TBS+/0.1% BSA were added and the plate covered and incubated for 1 hr at room temperature. After washing the plate 3× with 150 μL of TBS+ buffer, 50 μL of streptavidin-conjugated horseradish peroxidase (R&D Systems, DY998) diluted in TBS+ blocking buffer were added to the wells and the plate incubated for 20 min at room temperature. The plate was washed 3× with TBS+ buffer followed by 50 μL of TMB substrate (Sigma, T4444) added to each well in the dark and the plate was incubated for 25 min at room temperature. 25 μL of 1.0 M phosphoric acid was added as a stop solution and the plates were read at 450 nm using a Spectramax plate reader.

[2] = target: T2, Recombinant human integrin αVβ5 (Homo sapiens, UniProt P06756+P18084); assay: Solid Phase Receptor Assay (SPRA) for αVβ5 function; format: binding; conditions: plate-bound human vitronectin
T2 construct: purchased R&D Systems 2528-AV
Procedure: D. Solid Phase Receptor Assay (SPRA) for αVβ5 Function
Wells were washed 3 times with 150 μL TBS+ and then 150 μL of blocking buffer (TBS+ with 1% bovine serum albumin, Sigma A7906) was added. The plate was incubated for 1 hr at 37° C. and then washed 3× with TBS+ buffer. […] Compounds were diluted to 20 μM and then 1 μL was added to each well of the plate according to a standard template with each sample repeated in triplicate. After incubation for two hours at room temperature, the plate was washed 3× with 150 μL of TBS+ buffer. To each well, 50 μl of biotinylated anti-αV antibody (R&D Systems, BAF1219) at 0.5 μg/mL in TBS+/0.1% BSA at 0.5 μg/mL were added and the plate covered and incubated for 1 hr at room temperature. After washing the plate 3× with 150 μL of TBS+ buffer, 50 μL of streptavidin-conjugated horseradish peroxidase (R&D Systems, DY998) diluted in TBS+ blocking buffer were added to the wells and the plate incubated for 20 min at room temperature. The plate was washed 3× with TBS+ buffer followed by 50 μL of TMB substrate (Sigma T4444) added to each well in the dark and the plate incubated for 5 min at room temperature. 25 μL of 1.0 M phosphoric acid was added as a stop solution and the plates were read at 450 nm using a Spectramax plate reader.

T2 sequence (P06756 31-992 limits assumed): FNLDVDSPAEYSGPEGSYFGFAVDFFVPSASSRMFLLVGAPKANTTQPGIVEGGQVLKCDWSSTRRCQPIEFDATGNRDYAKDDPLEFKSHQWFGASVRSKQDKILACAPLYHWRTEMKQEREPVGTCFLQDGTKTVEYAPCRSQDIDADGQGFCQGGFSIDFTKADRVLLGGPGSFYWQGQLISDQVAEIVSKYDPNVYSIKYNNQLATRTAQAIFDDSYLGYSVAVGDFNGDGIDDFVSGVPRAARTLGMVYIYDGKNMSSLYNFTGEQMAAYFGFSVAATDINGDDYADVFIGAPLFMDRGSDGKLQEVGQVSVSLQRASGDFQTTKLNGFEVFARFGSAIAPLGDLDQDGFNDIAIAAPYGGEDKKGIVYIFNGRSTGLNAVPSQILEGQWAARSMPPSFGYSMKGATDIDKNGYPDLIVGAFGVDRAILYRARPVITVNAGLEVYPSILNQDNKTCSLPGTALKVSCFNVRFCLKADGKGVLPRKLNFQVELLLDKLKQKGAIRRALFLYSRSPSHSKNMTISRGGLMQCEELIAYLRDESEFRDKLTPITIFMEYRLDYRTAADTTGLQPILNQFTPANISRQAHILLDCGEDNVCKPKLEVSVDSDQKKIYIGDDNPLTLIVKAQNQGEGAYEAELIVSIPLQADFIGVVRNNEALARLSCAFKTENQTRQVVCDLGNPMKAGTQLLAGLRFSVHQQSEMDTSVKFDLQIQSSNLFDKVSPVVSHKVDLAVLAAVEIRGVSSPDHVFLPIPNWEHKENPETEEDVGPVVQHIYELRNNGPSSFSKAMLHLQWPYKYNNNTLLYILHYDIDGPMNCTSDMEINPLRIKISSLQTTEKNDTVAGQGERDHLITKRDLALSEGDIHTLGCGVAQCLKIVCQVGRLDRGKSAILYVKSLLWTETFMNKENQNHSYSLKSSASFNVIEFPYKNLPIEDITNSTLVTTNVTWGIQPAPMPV
T2 sequence (P18084 24-719 limits assumed): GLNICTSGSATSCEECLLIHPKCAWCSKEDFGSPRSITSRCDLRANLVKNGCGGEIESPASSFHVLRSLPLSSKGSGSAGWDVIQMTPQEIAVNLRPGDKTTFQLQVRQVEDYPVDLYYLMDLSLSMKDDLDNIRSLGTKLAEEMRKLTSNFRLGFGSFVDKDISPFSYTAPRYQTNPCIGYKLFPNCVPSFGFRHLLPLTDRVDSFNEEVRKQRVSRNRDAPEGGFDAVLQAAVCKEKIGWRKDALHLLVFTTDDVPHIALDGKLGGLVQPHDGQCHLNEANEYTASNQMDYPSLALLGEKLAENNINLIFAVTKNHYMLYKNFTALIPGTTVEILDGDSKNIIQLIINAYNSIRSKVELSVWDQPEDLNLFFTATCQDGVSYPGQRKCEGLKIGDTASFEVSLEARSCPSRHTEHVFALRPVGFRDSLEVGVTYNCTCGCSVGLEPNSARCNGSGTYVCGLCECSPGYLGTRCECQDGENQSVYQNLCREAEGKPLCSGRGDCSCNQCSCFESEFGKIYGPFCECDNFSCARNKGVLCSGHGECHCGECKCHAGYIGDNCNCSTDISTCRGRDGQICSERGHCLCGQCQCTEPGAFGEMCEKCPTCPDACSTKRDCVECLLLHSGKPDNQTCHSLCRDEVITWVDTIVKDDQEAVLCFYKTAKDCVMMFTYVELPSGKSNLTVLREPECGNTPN
T1 sequence (P06756 31-992 limits assumed): as the sequence (P06756 31-992 limits assumed) above
T1 sequence (P05106 27-718 limits assumed): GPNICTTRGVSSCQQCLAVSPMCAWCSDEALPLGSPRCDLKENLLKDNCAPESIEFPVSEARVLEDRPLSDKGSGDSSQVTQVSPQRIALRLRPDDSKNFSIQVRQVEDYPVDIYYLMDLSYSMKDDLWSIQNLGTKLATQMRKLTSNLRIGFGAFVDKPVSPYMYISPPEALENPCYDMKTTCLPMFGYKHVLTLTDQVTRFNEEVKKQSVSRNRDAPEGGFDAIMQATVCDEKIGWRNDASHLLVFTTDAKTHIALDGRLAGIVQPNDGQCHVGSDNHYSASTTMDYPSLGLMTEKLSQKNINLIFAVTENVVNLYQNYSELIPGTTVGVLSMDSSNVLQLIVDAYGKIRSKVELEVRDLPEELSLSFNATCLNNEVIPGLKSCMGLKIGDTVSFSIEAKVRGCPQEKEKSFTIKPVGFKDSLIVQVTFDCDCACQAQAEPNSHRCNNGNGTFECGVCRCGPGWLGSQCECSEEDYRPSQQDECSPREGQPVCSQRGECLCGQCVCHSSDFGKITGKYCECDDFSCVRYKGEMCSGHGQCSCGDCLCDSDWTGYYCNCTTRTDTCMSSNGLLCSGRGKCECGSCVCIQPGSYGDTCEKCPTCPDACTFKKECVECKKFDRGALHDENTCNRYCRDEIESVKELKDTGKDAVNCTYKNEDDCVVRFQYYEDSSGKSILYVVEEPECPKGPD

| Compound | IC50 [1] | IC50 [2] |
| --- | --- | --- |
| Cn1nc(CC(CC(=O)O)c2cc(C(C)(C)C)ccc2OC(F)(F)F)cc1OCCc1ccc2c(n1)NCCC2 (centres unmarked) [Example 20, 3-(5-(tert-butyl)-2-(trifluoromethoxy)phenyl)-4-(1-methyl-5-(2-(5,6,7,8-tetrahydro-1,8-naphthyridin-2-yl)ethoxy)-1H-pyrazol-3-yl)butanoic acid] | 880 nM | 590 nM |
| COc1ccc(C2(C(F)F)CC2)cc1C(CC(=O)O)Cc1cc(OCCc2ccc3c(n2)NCCC3)n(C)n1 (centres unmarked) [Example 21, 3-[5-[1-(difluoromethyl)cyclopropyl]-2-methoxy-phenyl]-4-[1-methyl-5-[2-(5,6,7,8-tetrahydro-1,8-naphthyridin-2-yl)ethoxy]pyrazol-3-yl]butanoic acid] | 340 nM | 290 nM |
| COc1ccc(C(C)(C)O)cc1C(CC(=O)O)Cc1cc(OCCc2ccc3c(n2)NCCC3)n(C)n1 (centres unmarked) [Example 22, 3-(5-(2-hydroxypropan-2-yl)-2-methoxyphenyl)-4-(1-methyl-5-(2-(5,6,7,8-tetrahydro-1,8-naphthyridin-2-yl)ethoxy)-1H-pyrazol-3-yl)butanoic acid] | 5 nM | 10 nM |
| COc1ccc(C2COC2)cc1C(CC(=O)O)Cc1cc(OCCc2ccc3c(n2)NCCC3)n(C)n1 (centres unmarked) [Example 23, 3-[2-methoxy-5-(oxetan-3-yl)phenyl]-4-[1-methyl-5-[2-(5,6,7,8-tetrahydro-1,8-naphthyridin-2-yl)ethoxy]pyrazol-3-yl]butanoic acid] | 26 nM | 29 nM |
| COc1ccc(S(F)(F)(F)(F)F)cc1C(CC(=O)O)Cc1cc(OCCc2ccc3c(n2)NCCC3)n(C)n1 (centres unmarked) [Example 24, 3-[2-methoxy-5-(pentafluoro-sulfanyl)phenyl]-4-[1-methyl-5-[2-(5,6,7,8-tetrahydro-1,8-naphthyridin-2-yl)ethoxy]pyrazol-3-yl]butanoic acid] | 130 nM | 96 nM |
| COc1c(C(C)C)cc(C(CC(=O)O)Cc2cc(OCCc3ccc4c(n3)NCCC4)n(C)n2)cc1C(C)C (centres unmarked) [Example 25, 3-(3,5-diisopropyl-4-methoxy-phenyl)-4-[1-methyl-5-[2-(5,6,7,8-tetrahydro-1,8-naphthyridin-2-yl)ethoxy]pyrazol-3-yl]butanoic acid] | 37 nM | 78 nM |
| COc1c(C(C)C)cc(C(CC(=O)O)Cc2csc(CCCc3ccc4c(n3)NCCC4)n2)cc1C(C)C (centres unmarked) [Example 26, 3-(3,5-diisopropyl-4-methoxy-phenyl)-4-[2-[3-(5,6,7,8-tetrahydro-1,8-naphthyridin-2-yl)propyl]thiazol-4-yl]butanoic acid] | 530 nM | 610 nM |
| CC(C)(C)c1cc(C(CC(=O)O)Cc2csc(CCCc3ccc4c(n3)NCCC4)n2)cc(C(C)(C)C)c1 (centres unmarked) [Example 27, 3-(3,5-di-tert-butylphenyl)-4-(2-(3-(5,6,7,8-tetrahydro-1,8-naphthyridin-2-yl)propyl)thiazol-4-yl)butanoic acid] | 2900 nM | 1100 nM |
| COc1ccc(C(C)(C)C)cc1C(CC(=O)O)Cc1csc(CCCc2ccc3c(n2)NCCC3)n1 (centres unmarked) [Example 28, 3-(5-(tert-butyl)-2-methoxyphenyl)-4-(2-(3-(5,6,7,8-tetrahydro-1,8-naphthyridin-2-yl)propyl)thiazol-4-yl)butanoic acid] | 1500 nM | 440 nM |
| COc1c(C(C)(C)C)cc(C(CC(=O)O)Cc2csc(CCCc3ccc4c(n3)NCCC4)n2)cc1C(C)(C)C (centres unmarked) [Example 29, 3-(3,5-di-tert-butyl-4-methoxyphenyl)-4-(2-(3-(5,6,7,8-tetrahydro-1,8-naphthyridin-2-yl)propyl)thiazol-4-yl)butanoic acid] | 1600 nM | 800 nM |
| CC(C)(C)c1cc(C(CC(=O)O)Cc2csc(CCCc3ccc4c(n3)NCCC4)n2)cc(C2(C(F)F)CC2)c1 (centres unmarked) [Example 30, 3-[3-tert-butyl-5-[1-(difluoromethyl)cyclopropyl]phenyl]-4-[2-[3-(5,6,7,8-tetrahydro-1,8-naphthyridin-2-yl)propyl]thiazol-4-yl]butanoic acid] | 720 nM | 260 nM |
| CC(C)(C)c1cc(C(CC(=O)O)Cc2csc(CCCc3ccc4c(n3)NCCC4)n2)cc(C(C)(C)C(F)(F)F)c1 (centres unmarked) [Example 31, 3-[3-tert-butyl-5-(2,2,2-trifluoro-1,1-dimethyl-ethyl)phenyl]-4-[2-[3-(5,6,7,8-tetrahydro-1,8-naphthyridin-2-yl)propyl]thiazol-4-yl]butanoic acid] | 2600 nM | 1500 nM |
| COCC1(c2cc(C(CC(=O)O)Cc3csc(CCCc4ccc5c(n4)NCCC5)n3)cc(C(C)(C)C)c2)CCOCC1 (centres unmarked) [Example 32, 3-[3-tert-butyl-5-[4-(methoxymethyl)tetrahydropyran-4-yl]phenyl]-4-[2-[3-(5,6,7,8-tetrahydro-1,8-naphthyridin-2-yl)propyl]thiazol-4-yl]butanoic acid] | 600 nM | 240 nM |
| CC(C)(C)c1ccc(C#N)c(C(CC(=O)O)Cc2csc(CCCc3ccc4c(n3)NCCC4)n2)c1 (centres unmarked) [Example 33, 3-(5-tert-butyl-2-cyano-phenyl)-4-[2-[3-(5,6,7,8-tetrahydro-1,8-naphthyridin-2-yl)propyl]thiazol-4-yl]butanoic acid] | 38 nM | 32 nM |
| CC(C)(C)c1ccc(Br)c(C(CC(=O)O)Cc2csc(CCCc3ccc4c(n3)NCCC4)n2)c1 (centres unmarked) [Example 34] | 2500 nM | 360 nM |
| COc1ccc(C(F)(F)F)cc1C(CC(=O)O)Cc1csc(CCCc2ccc3c(n2)NCCC3)n1 (centres unmarked) [Example 35, 3-[2-methoxy-5-(trifluoromethyl)phenyl]-4-[2-[3-(5,6,7,8-tetrahydro-1,8-naphthyridin-2-yl)propyl]thiazol-4-yl]butanoic acid] | 78 nM | 69 nM |
| COc1ccc(C2(C(F)F)CC2)cc1C(CC(=O)O)Cc1csc(CCCc2ccc3c(n2)NCCC3)n1 (centres unmarked) [Example 36, 3-(5-(1-(difluoromethyl)cyclopropyl)-2-methoxyphenyl)-4-(2-(3-(5,6,7,8-tetrahydro-1,8-naphthyridin-2-yl)propyl)thiazol-4-yl)butanoic acid] | 840 nM | 150 nM |
| COc1ccc(C2=CCOCC2)cc1C(CC(=O)O)Cc1csc(CCCc2ccc3c(n2)NCCC3)n1 (centres unmarked) [Example 37, 3-[5-(3,6-dihydro-2H-pyran-4-yl)-2-methoxy-phenyl]-4-[2-[3-(5,6,7,8-tetrahydro-1,8-naphthyridin-2-yl)propyl]thiazol-4-yl]butanoic acid] | 230 nM | 37 nM |
| COc1ccc(C2=CCOCC2)cc1[C@H](CC(=O)O)Cc1csc(CCCc2ccc3c(n2)NCCC3)n1 [Example 37A, (S)-3-(5-(3,6-dihydro-2H-pyran-4-yl)-2-methoxyphenyl)-4-(2-(3-(5,6,7,8-tetrahydro-1,8-naphthyridin-2-yl)propyl)thiazol-4-yl)butanoic acid trifluoroacetate] | 160 nM | 31 nM |
| COc1ccc(C2=CCOCC2)cc1[C@@H](CC(=O)O)Cc1csc(CCCc2ccc3c(n2)NCCC3)n1 [Example 37B, (R)-3-(5-(3,6-dihydro-2H-pyran-4-yl)-2-methoxyphenyl)-4-(2-(3-(5,6,7,8-tetrahydro-1,8-naphthyridin-2-yl)propyl)thiazol-4-yl)butanoic acid trifluoroacetate] | 940 nM | 62 nM |
| Cc1cc(C)n(-c2cccc(C(CC(=O)O)Cc3csc(CCc4ccc5c(n4)NCCC5)n3)c2)n1 (centres unmarked) [Example 38, 3-(3-(3,5-dimethyl-1H-pyrazol-1-yl)phenyl)-4-(2-(2-(5,6,7,8-tetrahydro-1,8-naphthyridin-2-yl)ethyl)thiazol-4-yl)butanoic acid] | 9 nM | 0.7 nM |
| CC(C)(C)c1cc(C(CC(=O)O)Cc2cc(OCCc3ccc4c(n3)NCCC4)n(CC(F)(F)F)n2)cc(C(C)(C)C)c1 (centres unmarked) [Example 40, 3-(3,5-di-tert-butylphenyl)-4-(5-(2-(5,6,7,8-tetrahydro-1,8-naphthyridin-2-yl)ethoxy)-1-(2,2,2-trifluoroethyl)-1H-pyrazol-3-yl)butanoic acid trifluoroacetate] | 740 nM | 180 nM |
